Reference: PubChem BioAssay AID248 (DTP/NCI, 2004)
Inconclusive results and toxic doses are left out. No stated cut-off is given here; in the data, active means T/C of 150% or more; inactive means T/C below 125%.

System: L1210 leukemia ip in BDF1 mice, survival T/C
Experiment: NCI In Vivo Anticancer Drug Screen. Data for tumor model L1210 Leukemia (intraperitoneal) in B6D2F1 (BDF1) mice
Conditions: endpoint: mean survival time, higher = longer survival
Method in brief: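 Antitumor effect is assessed in tumor-bearing animals. Survival in the compound arm is compared with a vehicle-dosed control arm and expressed as their quotient.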

Measured: T/C

Cc1cccc(Cl)c1NC(=S)Nc1cccc(C(F)(F)F)c1
inactive: dose: 100.0 mg/kg/injection, schedule: Q01DX009 (ip), vehicle: Klucel (hydroxypropylcellulose) (HPC) 102 % of control | dose: 200.0 mg/kg/injection, schedule: Q01DX009 (ip), vehicle: Klucel (hydroxypropylcellulose) (HPC) 102 % of control | dose: 400.0 mg/kg/injection, schedule: Q01DX009 (ip), vehicle: Klucel (hydroxypropylcellulose) (HPC) 96 % of control

CCCCC(C)(O)C(F)(F)F (stereo unspecified)
inactive: dose: 100.0 mg/kg/injection, schedule: Q01DX001 (ip), vehicle: steriod suspending solution 96 % of control | dose: 200.0 mg/kg/injection, schedule: Q01DX001 (ip), vehicle: steriod suspending solution 91 % of control | dose: 400.0 mg/kg/injection, schedule: Q01DX001 (ip), vehicle: steriod suspending solution 100 % of control
